Measurements from patent US8293773B2, “1, 2, 3-triazole derivatives as new cannabinoid-1 receptor antagonists” (National Tsing Hua University, priority 2008, dated 2012).

Biological target: T1, human CB1 receptor (Homo sapiens, UniProt P21554)
T1 construct: expressed in transfected cells; membrane-enriched fractions
Test: competitive radioligand binding assay, displacement of [3H]CP55,940, CB1
Conditions: for inhibition at 10 µM / CB1 Inhibition (%) (10 μM): percent inhibition at 10 μM; for IC50: displacement of specific [3H]-CP55940 binding in HEK 293 cells stably transfected with human CB1 receptor
Procedure: In addition, the affinity of test compounds of this invention toward CB1 and CB2 receptors was determined by competitive radioligand binding assays in vitro. This method differentiates the binding strength between compounds by their abilities in displacing a receptor-specific radioactive ligand. […] The readings of the radioactivity retained allow further analysis of receptor binding, and assist in predictions of the pharmacological activities of the test compounds.
In the assays, CB1 receptors are from human CB1 stably expressed cell lines, and CB2 receptors are from human CB2 stably expressed cell lines. For purification of membrane-enriched fractions, cells were scraped off from the culture dishes in ice-cold buffer A (50 mM Tris, 5 mM MgCl2, 2.5 mM EDTA, pH 7.4, 10% sucrose) with 1 mM PMSF. After sonication, the membrane-enriched fractions were centrifuged for 15 minutes at 2,000×g at 4° C. The supernatant was centrifuged again for 30 minutes at 43,000×g at 4° C. The final pellet was re-suspended in buffer A and stored at −80° C. The protein concentration of the purified membrane was determined by the Bradford method as described by the manual provided by Bio-Rad Laboratories, Inc., Hercules, Calif.
During the receptor binding experiments, 0.2˜8 μg of membrane fractions were incubated with 0.75 nM [^3H]CP55,940 and a test compound in the incubation buffer of 50 mM Tris-HCl, 5 mM MgCl2, 1 mM EDTA, 0.3% BSA, pH 7.4. The non-specific binding was determined by using 1 μM of CP55,940. The mixture was incubated for 1.5 hours at 30° C. in Multiscreen microplates (Millipore, Billerica, Mass.). At the completion of the incubation, the reaction was terminated by Manifold filtration and washed with ice-cold wash buffer (50 mM Tris, pH 7.4, 0.25% BSA) four times. The radioactivity bound to the filters was measured by Topcount (Perkin Elmer Inc.).

T1 sequence (P21554 whole entry): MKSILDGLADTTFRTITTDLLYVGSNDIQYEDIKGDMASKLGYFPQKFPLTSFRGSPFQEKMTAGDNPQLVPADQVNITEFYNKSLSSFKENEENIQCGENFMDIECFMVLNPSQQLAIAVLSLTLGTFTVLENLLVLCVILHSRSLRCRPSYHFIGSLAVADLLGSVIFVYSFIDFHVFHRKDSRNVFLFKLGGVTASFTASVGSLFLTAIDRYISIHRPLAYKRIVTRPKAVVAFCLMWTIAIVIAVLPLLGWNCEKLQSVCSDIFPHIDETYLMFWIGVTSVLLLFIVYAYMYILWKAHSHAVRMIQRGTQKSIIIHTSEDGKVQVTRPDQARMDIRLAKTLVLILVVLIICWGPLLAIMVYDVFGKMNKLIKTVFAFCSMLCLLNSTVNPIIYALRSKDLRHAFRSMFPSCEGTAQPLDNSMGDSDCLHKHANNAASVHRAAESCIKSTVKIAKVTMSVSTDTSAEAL

| inhibition at 10 µM (Table 2) [%] | Compound | other results |
| --- | --- | --- |
|  | CCCCOC(=O)Cn1nnc(-c2ccc(C(=O)OC)cc2)c1-c1ccc(C(=O)OC)cc1 [Compound 61] | inhibition at 10 µM (Table 1): 46.1% |
|  | CCCCOC(=O)Cn1nnc(-c2cccc(Br)c2)c1-c1cccc(Br)c1 [Compound 62] | inhibition at 10 µM (Table 1): 18.3% |
|  | CCCCOC(=O)Cn1nnc(-c2cccc(C)c2)c1-c1cccc(C)c1 [Compound 63] | inhibition at 10 µM (Table 1): 9.9% |
|  | O=C(Cn1nnc(-c2ccc(Cl)cc2Cl)c1-c1ccc(Cl)cc1Cl)N1CCOCC1 [Compound 64] | inhibition at 10 µM (Table 1): 26% |
| 11.4 | O=C(c1ccccc1)n1nc(-c2ccccc2)c(-c2ccccc2)n1 [Compound 65] |  |
| 32.1 | CC(C)(C)C(=O)n1nc(-c2ccccc2)c(-c2ccccc2)n1 [Compound 66] |  |
| 13.1 | O=C(c1ccccc1Cl)n1nc(-c2ccccc2)c(-c2ccccc2)n1 [Compound 67] |  |
| 24.2 | CC(C)(C)C(=O)n1nc(-c2ccc(Cl)cc2Cl)c(-c2ccc(Cl)cc2Cl)n1 [Compound 68] |  |
| 9.9 | COc1ccc(NC(=O)n2nc(-c3ccc(Cl)cc3)c(-c3ccc(Cl)cc3)n2)cc1 [Compound 69] |  |
| 16.2 | O=C(c1ccccc1)n1nc(-c2ccc(Cl)cc2)c(-c2ccc(Cl)cc2)n1 [Compound 70] |  |
| 3.6 | Cc1cc(C)cc(NC(=O)n2nc(-c3ccc(Cl)cc3)c(-c3ccc(Cl)cc3)n2)c1 [Compound 71] |  |
| 23.8 | O=C(NCc1ccccc1)n1nc(-c2ccc(Cl)cc2Cl)c(-c2ccc(Cl)cc2Cl)n1 [Compound 73] |  |
|  | O=C(NC1CCCCC1)n1nc(-c2ccc(Cl)cc2Cl)c(-c2ccc(Cl)cc2Cl)n1 [Compound 74] | CB1 Inhibition (%) (10 μM) (Table 2): 50.80% |
| 3.3 | CCCCCCNC(=O)n1nc(-c2ccc(Cl)cc2Cl)c(-c2ccc(Cl)cc2Cl)n1 [Compound 75] |  |
| 12.7 | Cc1cc(C)cc(NC(=O)n2nc(-c3ccc(Cl)cc3Cl)c(-c3ccc(Cl)cc3Cl)n2)c1 [Compound 76] |  |
| 27.5 | CCCCCCCCNC(=O)n1nc(-c2ccc(Cl)cc2Cl)c(-c2ccc(Cl)cc2Cl)n1 [Compound 77] |  |
| 6.4 | COc1ccc(NC(=O)n2nc(-c3ccc(Cl)cc3Cl)c(-c3ccc(Cl)cc3Cl)n2)cc1 [Compound 78] |  |
| 1.5 | O=C(Nc1ccc(Cl)cc1)n1nc(-c2ccc(Cl)cc2)c(-c2ccc(Cl)cc2)n1 [Compound 79] |  |
| 29.9 | O=C(NC1CCCCC1)n1nc(-c2ccc(Cl)cc2)c(-c2ccc(Cl)cc2)n1 [Compound 80] |  |
| 41.5 | CCCCCCNC(=O)n1nc(-c2ccc(Cl)cc2)c(-c2ccc(Cl)cc2)n1 [Compound 81] |  |
| 26.9 | CCCCCCCCNC(=O)n1nc(-c2ccc(Cl)cc2)c(-c2ccc(Cl)cc2)n1 [Compound 82] |  |
| 11.8 | CCCCC(=O)n1nc(-c2ccc(Cl)cc2)c(-c2ccc(Cl)cc2)n1 [Compound 83] |  |
| 21.2 | CCCCCCCC(=O)n1nc(-c2ccc(Cl)cc2)c(-c2ccc(Cl)cc2)n1 [Compound 84] |  |
| 18.3 | CCCCCCCCC(=O)n1nc(-c2ccc(Cl)cc2)c(-c2ccc(Cl)cc2)n1 [Compound 85] |  |
| 8.4 | CCCCCNC(=O)n1nc(-c2ccc(Cl)cc2)c(-c2ccc(Cl)cc2)n1 [Compound 86] |  |
| 12.9 | CCCCCCCNC(=O)n1nc(-c2ccc(Cl)cc2)c(-c2ccc(Cl)cc2)n1 [Compound 87] |  |

| inhibition at 10 µM (Table 2) [%] | Compound | other results |
| --- | --- | --- |
| 7 | CCCCCNC(=O)n1nc(-c2ccc(Cl)cc2Cl)c(-c2ccc(Cl)cc2Cl)n1 [Compound 88] |  |
| 12.9 | CCCCCCCNC(=O)n1nc(-c2ccc(Cl)cc2Cl)c(-c2ccc(Cl)cc2Cl)n1 [Compound 89] |  |
| 11.2 | O=C(NCCc1ccccc1)n1nc(-c2ccc(Cl)cc2Cl)c(-c2ccc(Cl)cc2Cl)n1 [Compound 91] |  |
| 22.3 | CCCCOC(=O)CNC(=O)n1nc(-c2ccc(Cl)cc2Cl)c(-c2ccc(Cl)cc2Cl)n1 [Compound 92] |  |
| 30.5 | O=C(NC1CCCCC1)n1nc(-c2ccc(Cl)cc2)c(-c2ccc(Cl)cc2Cl)n1 [Compound 93] |  |
| 10.9 | CCCCCCNC(=O)n1nc(-c2ccc(Cl)cc2)c(-c2ccc(Cl)cc2Cl)n1 [Compound 94] |  |
| 14.9 | CCCCCCCNC(=O)n1nc(-c2ccc(Cl)cc2)c(-c2ccc(Cl)cc2Cl)n1 [Compound 95] |  |
| 17.7 | CCCCCCCCNC(=O)n1nc(-c2ccc(Cl)cc2)c(-c2ccc(Cl)cc2Cl)n1 [Compound 96] |  |
|  | O=C(NC1CCCCC1)n1nc(-c2ccc(Cl)cc2Cl)c(-c2ccc(Cl)cc2Cl)n1 [Compound 97] | CB1 Inhibition (%) (10 μM) (Table 2): 29.20% |
|  | CCCCCCCCNC(=O)n1nc(-c2ccc(Cl)cc2Cl)c(-c2ccc(Cl)cc2Cl)n1 [Compound 98] | CB1 Inhibition (%) (10 μM) (Table 2): 19.40% |
|  | CCCCCCNC(=O)n1nc(-c2ccc(Cl)cc2Cl)c(-c2ccc(Cl)cc2Cl)n1 [Compound 99] | CB1 Inhibition (%) (10 μM) (Table 2): 6.60% |
|  | O=C(NC1CCCCC1)n1nc(-c2ccc(Cl)cc2)c(-c2ccc(Cl)cc2)n1 [Compound 100] | CB1 Inhibition (%) (10 μM) (Table 2): 19.90% |
|  | CCCCCCCCNC(=O)n1nc(-c2ccc(Cl)cc2)c(-c2ccc(Cl)cc2)n1 [Compound 102] | CB1 Inhibition (%) (10 μM) (Table 2): 15.70% |
| 23.4 | O=C(NCCc1ccccc1)n1nc(-c2ccc(Cl)cc2)c(-c2ccc(Cl)cc2Cl)n1 [Compound 103] |  |
| 11.8 | CCCCOC(=O)CNC(=O)n1nc(-c2ccc(Cl)cc2)c(-c2ccc(Cl)cc2Cl)n1 [Compound 104] |  |
| 18.6 | O=C(NCc1ccccc1)n1nc(-c2ccc(Cl)cc2)c(-c2ccc(Cl)cc2Cl)n1 [Compound 105] |  |
| 4.8 | O=C(NC12CC3CC(CC(C3)C1)C2)n1nc(-c2ccccc2)c(-c2ccccc2)n1 [Compound 106] |  |
| 19.7 | O=C(NC12CC3CC(CC(C3)C1)C2)n1nc(-c2ccc(Cl)cc2)c(-c2ccc(Cl)cc2)n1 [Compound 107] |  |
| 58.1 | CCCCOC(=O)CNC(=O)n1nc(-c2ccc(Cl)cc2)c(-c2ccc(Cl)cc2)n1 [Compound 109] |  |
| 59.1 | CCOC(=O)Cn1nc(-c2ccccc2)c(-c2ccccc2)n1 [Compound 110] |  |
| 82.1 | CCCCOC(=O)Cn1nc(-c2ccc(Cl)cc2)c(-c2ccc(Cl)cc2)n1 [Compound 112] | IC50: 2.81 ± 0.301 µM |
| 39.1 | CCCCCCOC(=O)Cn1nc(-c2ccc(Cl)cc2)c(-c2ccc(Cl)cc2Cl)n1 [Compound 114] |  |
| 72.7 | CCCCCCOC(=O)Cn1nc(-c2ccc(Cl)cc2Cl)c(-c2ccc(Cl)cc2Cl)n1 [Compound 115] | IC50: 4.46 ± 0.698 µM |
| 76.5 | CCCCCOC(=O)Cn1nc(-c2ccc(Cl)cc2Cl)c(-c2ccc(Cl)cc2Cl)n1 [Compound 116] | IC50: 2.8 ± 0.544 µM |
| 47.5 | CCCCCCCOC(=O)Cn1nc(-c2ccc(Cl)cc2Cl)c(-c2ccc(Cl)cc2Cl)n1 [Compound 117] |  |
| 67.4 | CCCCOC(=O)Cn1nc(-c2ccc(Cl)cc2)c(-c2ccc(Cl)cc2Cl)n1 [Compound 118] |  |

| Compound | inhibition at 10 µM (Table 2) [%] | other results |
| --- | --- | --- |
| CCCCCNC(=O)n1nc(-c2ccc(Cl)cc2)c(-c2ccc(Cl)cc2Cl)n1 [Compound 90] | 14.4 |  |
| O=C(NC12CC3CC(CC(C3)C1)C2)n1nc(-c2ccc(Cl)cc2)c(-c2ccc(Cl)cc2Cl)n1 [Compound 108] | 34.5 |  |
| O=C(NC12CC3CC(CC(C3)C1)C2)n1nc(-c2ccc(Cl)cc2Cl)c(-c2ccc(Cl)cc2Cl)n1 [Compound 113] | 78.9 | IC50: 4.5 ± 0.871 µM |
